# PubChem BioAssay (NCI)
# Values joined by “and” are separate entries in the source; they are usually repeats but may differ in a detail not shown here. Identical values can stand only once.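 Test compounds were applied to cells in 96-well plates for 48 hours at 5 doses. Abbreviation: GI50, concentration required for 50% inhibition of growth. TGI marks complete inhibition of growth.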
# Key:
# Test in all cases: NCI tumour cell line growth inhibition, 48 h
# SF-295 CNS = tested on: SF-295 CNS
# CCRF-CEM leukemia = tested on: CCRF-CEM leukemia
# NCI-H460 lung = tested on: NCI-H460 lung
# U251 CNS = tested on: U251 CNS
# UACC-257 melanoma = tested on: UACC-257 melanoma
# HOP-92 NSCLC = tested on: HOP-92 NSCLC
# LOX IMVI melanoma = tested on: LOX IMVI melanoma
# NCI-H23 lung = tested on: NCI-H23 lung
# OVCAR-4 ovarian = tested on: OVCAR-4 ovarian
# COLO 205 colon = tested on: COLO 205 colon
SMILES,TGI (SF-295 CNS),GI50 (CCRF-CEM leukemia),TGI (CCRF-CEM leukemia),GI50 (NCI-H460 lung),TGI (NCI-H460 lung),GI50 (U251 CNS),TGI (U251 CNS),TGI (UACC-257 melanoma),TGI (HOP-92 NSCLC) [µM],TGI (LOX IMVI melanoma),TGI (NCI-H23 lung),GI50 (OVCAR-4 ovarian),TGI (OVCAR-4 ovarian) [µM],TGI (COLO 205 colon),GI50 (SF-295 CNS),GI50 (UACC-257 melanoma),GI50 (HOP-92 NSCLC),GI50 (LOX IMVI melanoma) [µM],GI50 (NCI-H23 lung),GI50 (COLO 205 colon) [µM]
COC(=O)C1=COC(C)C2CN3CCc4c([nH]c5cc(OC)c(OC)cc45)C3CC12 (configuration not stated),> 100 µM,41.7 µM and 13.6 µM,> 100 µM,67.1 µM and 22.4 µM,> 100 µM,> 100 µM and 47.4 µM,> 100 µM,> 100 µM,> 100,> 100 µM,> 100 µM,89.4 µM and 34.3 µM,> 100,> 100 µM and 86.6 µM,–,–,–,–,–,–
CC1(C)CC[C@]2(C(=O)O)CC[C@]3(C)C(=CC[C@@H]4[C@@]5(C)C[C@H](O)[C@H](O)[C@@](C)(C(=O)O)[C@@H]5CC[C@]43C)[C@@H]2C1,> 100 µM,–,> 100 µM,–,> 100 µM,–,> 100 µM,> 100 µM,> 100,> 100 µM,> 100 µM,–,> 100,> 100 µM,–,–,–,–,–,–
CCCCC(C(=O)CCC(=O)Nc1ccc(Cl)c(Cl)c1)C(=O)C(C)C (configuration not stated),> 100 µM,–,> 100 µM,–,> 100 µM,–,> 100 µM,> 100 µM,> 100,> 100 µM,> 100 µM,–,> 100,> 100 µM,–,–,–,–,–,–
Cn1cc(C2=C(c3c4n(c5ccccc35)CCC(CN)C4)C(=O)NC2=O)c2ccccc21 (configuration not stated),6.09 µM,2.43 µM,7.23 µM,3.32 µM,7.05 µM,2.74 µM,6 µM,6.68 µM,12.3,7.53 µM,7.74 µM,2.5 µM,7.42,5.15 µM,2.31 µM,3.23 µM,5.25 µM,3.83,3.6 µM,1.63
Nc1nc(Cl)cc(NCC(O)CO)n1 (configuration not stated),> 100 µM,–,> 100 µM,–,> 100 µM,–,> 100 µM,> 100 µM,> 100,> 100 µM,> 100 µM,–,> 100,> 100 µM,–,–,–,–,–,–
O=C(/C(=C/c1ccc([N+](=O)[O-])cc1)SCc1ccc(Cl)cc1)c1ccc(F)cc1,14.4 µM,1.97 µM,> 100 µM,5.79 µM,24.7 µM,1.74 µM,3.17 µM,26.1 µM,34,3.1 µM,21.9 µM,3.11 µM,13.9,14.9 µM,4.02 µM,11.5 µM,10.2 µM,1.63,3.92 µM,3.8
COc1cc(O)c2c(c1)O[C@@H]1OCC[C@H]21,> 100 µM,–,> 100 µM,–,> 100 µM,–,> 100 µM,> 100 µM,> 100,> 100 µM,> 100 µM,–,> 100,> 100 µM,–,–,–,–,–,–
CCC(O)C1Cc2c(C)cc3c(c2O1)C(=O)c1ccccc1C3=O (configuration not stated),86.8 µM,–,> 100 µM,–,> 100 µM,–,> 100 µM,> 100 µM,97.1,93.7 µM,> 100 µM,–,> 100,33.1 µM,–,–,–,–,–,–
O=C1NC2C(=CC(O)C(O)C2O)c2cc3c(cc21)OCO3 (configuration not stated),3.26 µM and 2.39 µM,0.154 µM and 0.115 µM,0.875 µM and 3.55 µM,0.251 µM and 0.147 µM,2.01 µM and 1.3 µM,0.325 µM and 0.0688 µM,0.437 µM and 3.07 µM,2.83 µM and 2.86 µM,–,0.67 µM and 1.53 µM,2 µM and 2.84 µM,0.159 µM and 0.422 µM,–,0.595 µM and 0.249 µM and 0.579 µM,0.889 µM and 0.317 µM,0.47 µM and 0.304 µM,0.116 µM and 0.171 µM,0.115,0.325 µM and 0.205 µM,0.074
COc1ccc(Cn2cc3c(c2-c2ccccc2)CCc2cnoc2-3)cc1OC,> 100 µM,1.78 µM,> 100 µM,0.457 µM,> 100 µM,0.774 µM,> 100 µM,> 100 µM,> 100,> 100 µM,> 100 µM,3.56 µM,> 100,3.81 µM,0.34 µM,60.4 µM,1.98 µM,0.819,1.46 µM,0.55
COc1ccc2c(c1)oc(=O)c1cc(OC)ccc12,> 100 µM,> 100 µM,> 100 µM,> 100 µM,> 100 µM,> 100 µM,> 100 µM,> 100 µM,> 100,> 100 µM,> 100 µM,> 100 µM,> 100,> 100 µM,> 100 µM,> 100 µM,> 100 µM,> 100,> 100 µM,> 100
CC1(Br)CC2OC3(Br)C=CC(C)(O)C2(CC1=O)C3(C)C (configuration not stated),> 100 µM,–,> 36 µM,–,> 100 µM,–,> 100 µM,> 100 µM,> 100,> 100 µM,> 100 µM,–,> 100,> 100 µM,–,–,–,–,–,–
Cc1ccc2c(c1)c(Sc1ccc(C(=O)NO)cc1)c1n2CN(C)CC1,3.69 µM,1.3 µM,9.52 µM,2.05 µM,6.16 µM,1.61 µM,3.42 µM,5.37 µM,6.37,3.36 µM,3.85 µM,1.51 µM,9.04,4.11 µM,1.83 µM,1.48 µM,2.1 µM,1.59,1.8 µM,1.82
CC/C(=C(/c1ccc(O)cc1)c1ccc(OCCN)cc1)c1ccccc1,4 µM,2.87 µM,8.77 µM,1.96 µM,3.95 µM,1.82 µM,3.86 µM,22.7 µM,5.84,3.23 µM,16.5 µM,2.88 µM,16,3.75 µM,1.86 µM,10.5 µM,1.46 µM,1.76,4.56 µM,1.95
Cc1cc(C)n(-c2ccnc3cc(Cl)ccc23)n1,> 100 µM,–,> 100 µM,–,> 100 µM,–,> 100 µM,> 100 µM,> 100,> 100 µM,> 100 µM,–,> 100,> 100 µM,–,–,–,–,–,–
